Entries after “also recorded” stand apart in the source; their conditions may differ.
Experiments:
[1] = system: HT1080 cells (fibrosarcoma line); assay: Cell viability assay (CellTiter-Blue) on HT1080 cells; format: cell-based
Description: (§1) U2OS and A2780 cells purchased from ATCC were held in McCoy's 5A or RPMI 1640 medium respectively, supplemented with 10% foetal bovine serum (FBS)) and 1× Antibiotic-Antimycotic (all from Gibco®) at 37° C. with 5% CO2. Measurement of cell viability was carried out by seeding 2000 cells per well in a 96-well plate. N-Acetyl Cystein (NAC, A9165 Sigma) or Pan-caspase zVAD-FMK inhibitor (550377 by BD pharmingen) were pre-treated for 1 hour or 30 minutes respectively before treatment with Marmycin A. The reagent <<CellTiter-Blue®>> Reagent) (20 μl/well) was added after 24, 48, or 72 treatment hours, and the cells were incubated for one hour before fluorescence detection (560(20)Ex/590(10)Em) on a Perkin Elmer Wallac 1420 Victor2 Microplate Reader.
The same protocol was followed to evaluate cell viability of HT1080 cells in the presence of compound 33 of Example 6 (called Oxamethoxymarmycin), doxorubicin or etoposide.

[2] = system: MDA-MB-231 cells (human breast cancer cells); assay: Cell viability assay (CellTiter-Blue) on MDA-MB-231 cells; format: cell-based
Description: MDA-MB-231 cells (human breast cancer cells) purchased from ATCC were held in McCoy's 5A medium, supplemented with 10% foetal bovine serum (FBS)) and 1× Antibiotic-Antimycotic (all from Gibco®) at 37° C. with 5% CO2.
Cell viability was measured by seeding 2000 cells per well in a 96-well plate. N-Acetyl Cystein (NAC, A9165 Sigma) or Pan-caspase zVAD-FMK inhibitor (550377 from BD pharmingen) were pre-treated for 1 hour or 30 minutes respectively before treatment with the assayed compounds. The reagent <<CellTiter-Blue® Reagent>> (20 μl/well) was added after a treatment time of 24, 48 or 72 hours, and the cells were incubated for one hour before fluorescence detection (560(20)Ex/590(10)Em) on a Perkin Elmer Wallac 1420 Victor2 Microplate Reader.
The assayed compounds were doxorubicin, marmycin A, artesunate, artesumycin and a combination of marmycin A and artesunate (cf. FIG. 9).

[3] = system: HMLER CD24- cancerous stem cell line (HMLER CD44high/CD24low); assay: Cell viability assay on HMLER CD24- cancerous stem cell line; format: cell-based, human
Description: (§2) Cell viability: cell viability was assessed using the following protocol:
(§3) Seeding 1000 cells/well in a 96-well plate. The cells were treated for 72 hours. After a treatment time of 72 hours the reagent CellTiter-Blue® Reagent (G8081, Promega) was added and the cells incubated for one hour before recording fluorescence intensities (Excitation, 560/20 nm; Emission, 590/10 nm) using a Perkin Elmer Wallac 1420 Victor2 Microplate Reader.
(§4) Cell culture: the following material was used: saline buffer <<Dulbecco's Phosphate-Buffered Saline>> (14190-094, 500 mL, Gibco), DMEM/F12 (31331-028, 500 mL, Gibco), DMEM high-glucose with UltraGlutamine (BE12-604F/U1, BioWhittaker, Lonza), McCoy's 5A medium (Modified) (26600-023, Gibco), RPMI 1640 with L-glutamine (BE12-702F/U1, BioWhittaker, Lonza), Foetal Bovine Serum—FBS, 10270-106, Gibco), Hydrocortisone (H0888, Sigma), Insulin (10516, Sigma or 19278, Sigma), BD Epidermal growth factor human recombinant (hEGF, 354052, BD Biosciences), PEN-STREP (DE17-602E, BioWhittaker, Lonza), puromycin dihydrochloride (A11138-02, 460 Life Technologies).
The human mammary epithelial cell line was infected with a retrovirus carrying hTERT, SV40 and the oncogenic allele HrasV12, called HMLER CD44high/CD24 low cells, not expressing E-cadherin and Vimentin (reference HMLER CD24low or HMLER CD44+/CD24−), courteously offered by A. Puisieux (INSERM).
(§5) The HMLER CD44^high/CD24^low cells (Cancer stem cells—CSCs), HMLER CD44^high/CD24^high (non-CSCs) were cultured in DMEM/F12 supplemented with 10% FBS, 10 μg/mL insulin, 0.5 μg/mL hydrocortisone, 10 ng/mL hEGF and 0.5 μg/mL of puromycin.

[4] = system: HMLER ID2 cancerous cell line; assay: Cell viability assay on HMLER ID2 cancerous cell line; format: cell-based, human; details: HMLER ID2 cells
Description: as §2, §3, §4
The line referenced HMLER ID2 is a hTert, SV40, HRasV12 transformed line, isogenic but non-stem.
as §5

lysosomes of U2OS cells = assay: Cell location by fluorescence (LysoTracker DND-22, GFP-Lamp1, DAPI) in U2OS cells; format: cell-based; details: U2OS cells treated 24 hours with 10 μM
Description: U2OS cells cultured to less than 40% confluence were treated for 24 hours with 10 μM of compound unless otherwise indicated. The marker LysoTracker® Blue DND-22 (L7525, Molecular Probes@) was added 30 minutes before fixing. GFP-Lamp1 was transiently transfected following the manufacturer's instructions. To summarise, […] of CellLight® Lysosomes-GFP BacMam 2.0 (C10596, Life Technologies) were mixed with […] of U2OS culture medium and added to each well of a 24-well plate. After overnight incubation (16 hours), the cells were washed and treated with Marmycin A as indicated in Example 9. For analysis by immunofluorescence, the cells were fixed 12 minutes in 2% formaldehyde/PBS, permeabilised 10 min with 0.1% Triton X/PBS and […] for 1 h with 5% BSA, 0.2% Tween-20/PBS (blocking buffer). Cover glasses were incubated with anti-LAMP1, p62, antibodies, diluted to 1/100 in the blocking buffer overnight at 4° C. The cells were then washed 3 times with 0.2% Tween-20/PBS, and incubated as described above with anti-mouse Alexa 488-conjugated secondary antibody (A11029, Invitrogen) diluted to 1/500 in blocking buffer. The cover glasses were washed as described above and mounted with VectaShield® mounting medium for analysis by fluorescence with or without DAPI (Vector Laboratories Ltd). The images were obtained with a Leica microscope […] and analysed with ImageJ software. […]

[5] = system: U2OS cells (osteosarcoma cancer line); assay: Cell proliferation/viability assay (CellTiter-Blue) on U2OS cells; format: cell-based; details: Homo sapiens, at 72 hours
Description: as §1

[6] = system: A2780 cells (ovarian cancer line); assay: Cell proliferation/viability assay (CellTiter-Blue) on A2780 cells; format: cell-based; details: Homo sapiens, at 72 hours
Description: as §1

[7] = system: DNA-damage response (phosphorylation of H2AX on ser139, phosphorylation of P53, induction of P21); assay: Western Blot analysis of DNA-damage response; format: cell-based; details: cells treated as in Example 10
Description: The cells treated as indicated in Example 10 were washed twice in PBS and lysed with Laemmli buffer 2×. The cell extracts were brought to the boil for five minutes at 100° C. and quantified with a Nanodrop 2000 device (Thermal Scientific). 100 μg of protein lysate were separated with 4-20% Mini-PROTEAN® TGX Stain-Free™ gel (BioRad) and transferred onto a nitrocellulose membrane (Amersham). Stains were detected with different antibodies such as anti-β-actin (ab8226, Abcam), anti-p62 (610833, BD Transduction Laboratories™), anti-H2AX (PA1-14198, Thermal Scientific), anti-gH2AX (Ser139) (#2577, Cell Signaling), anti-p21, anti-p53 (1C12) (#2524, Cell Signaling), anti-p-p53, anti-LC3B (#2775, Cell Signaling), anti-BID, diluted to 1/1000 in 5% BSA, 0.1% Tween-20/TBS.

[8] = system: human breast, prostate, lung, colon, ovarian cancer lines and leukaemia; details: cited from earlier work
[9] = Homo sapiens, HT-1080, at 72 hours

With `COc1cc([C@@H]2c3cc4c(cc3[C@@H](O[C@@H]3O[C@@H]5CO[C@@H](C)O[C@H]5[C@H](O)[C@H]3O)[C@H]3COC(=O)[C@H]23)OCO4)cc(OC)c1O` [etoposide] the IC50 [1, 9] was 500 nM.
Compound Oxamethoxymarmycin has an IC50 ([1]; at 72 hours) of 75000 nM.
For `Cc1ccc2c3c(ccc2c1)C(=O)c1c(ccc2c1NC1(C)CC2O[C@@H](C)[C@@H]1OC(=O)CCC(=O)OC1O[C@@H]2O[C@@]4(C)CC[C@H]5[C@H](C)CC[C@@H]([C@H]1C)[C@@]25OO4)C3=O` (stereo partly drawn) [artesumycin], the “cytotoxic activity compared with other treatments” value [2] was “higher than that of marmycin A and also higher than that of marmycin A combined with artesunate; also recorded: synergic effect”, the IC50 ([2]; Homo sapiens, 72 h treatment) was 900 nM and the cell viability ([2]; concentration of 0.9 μm) was “less than 50%”. For the same compound, the “cytotoxic activity compared with artesunate” value ([3]; HMLER CD24- cells) was “higher than that of artesunate”, the cell viability ([3]; HMLER CD24- cells, concentration of 1 μm, 72 hours) was “about 18%” and the IC50 ([3]; Homo sapiens, HMLER CD24- cancerous stem cells, 72 hours) was 100 nM. The “cytotoxic activity compared with artesunate” value [4] was “higher than that of artesunate”, the cell viability ([4]; concentration of 0.1 μm, 72 hours) was “about 44%” and the IC50 ([4]; Homo sapiens, 72 hours) was 98 nM. The cell location (lysosomes of U2OS cells) was “accumulates in the lysosomes”.
For `Cc1ccc2c3c(ccc2c1)C(=O)c1c(ccc2c1NC1(C)CC2O[C@@H](C)[C@@H]1O)C3=O` (stereo partly drawn) [marmycin A], the IC50 [5] was 10300 nM, the IC50 [6] was 9800 nM and the cell location (lysosomes of U2OS cells) was “not located at the cell nucleus but at the site of the lysosomes; also recorded: accumulates in the lysosomes”. The “DNA-damage response (Western Blot)” value [7] was “only scarcely damages caspase-dependent DNA” and the cytotoxic properties [8] was “cytotoxic properties”.
With `COc1cccc2c1C(=O)c1c(O)c3c(c(O)c1C2=O)C[C@@](O)(C(=O)CO)C[C@@H]3O[C@H]1C[C@H](N)[C@H](O)[C@H](C)O1` [doxorubicin, reference compound] the IC50 [5] was 100 nM, the IC50 [6] was 60 nM and the IC50 [1, 9] was 35 nM. For the same compound, the “DNA-damage response (Western Blot)” value [7] was “generates a DNA-damage response”.
